Assay results reported in patent publication US12076464B2, “Drug eluting shape memory foam” (The Texas A&M University System, priority 2019, dated 2024).

Legend:
Type in all cases: physicochemical
[1] = Solubility in DMSO and water
[2] = In vitro release of acriflavine from SMP foams into PBS at 37° C., fluorescence of supernatants
Experimental: An embodiment includes a method for creating a drug-eluting SMP foam. The method includes incubating the foam in a 0.017 mg/mL acriflavine solution (e.g., 1 mg/mL in acriflavine solution dimethyl sulfoxide (DMSO)) that is mixed with varying PVA solutions of 0%, 1%, 2%, 3%, 10% (wt./vol) overnight on a rotator at room temperature (n=3). Different PVA concentrations may be used to increase drug viscosity and drug uptake onto or into the foam. In other embodiments PVA is held constant and acriflavine concentrations are varied (which changes the PVA viscosity). Foams may then be removed from the respective drug/PVA solutions and dried in a vacuum chamber for 5 days. The foams may then be incubated in 0.4 mL phosphate-buffered saline (PBS) at 37° C. Supernatants may be removed at various time points and measured for fluorescence at 416/514 nm (Ex/Em). Regarding in vitro release of acriflavine from HDI-based SMP foams, see FIG. 1. […] This may be because of the increased loading of acriflavine that is due to PVA (and PVA's affinity for the foam). […] In vitro release of acriflavine from non-reticulated TMHDI 60 foam is addressed in FIG. 3.

[3] = Drug uptake (loading) onto or into SMP foam from drug/PVA solutions
Experimental: An embodiment includes a method for creating a drug-eluting SMP foam. The method includes incubating the foam in a 0.017 mg/mL acriflavine solution (e.g., 1 mg/mL in acriflavine solution dimethyl sulfoxide (DMSO)) that is mixed with varying PVA solutions of 0%, 1%, 2%, 3%, 10% (wt./vol) overnight on a rotator at room temperature (n=3). Different PVA concentrations may be used to increase drug viscosity and drug uptake onto or into the foam. In other embodiments PVA is held constant and acriflavine concentrations are varied (which changes the PVA viscosity). Foams may then be removed from the respective drug/PVA solutions and dried in a vacuum chamber for 5 days. The foams may then be incubated in 0.4 mL phosphate-buffered saline (PBS) at 37° C. Supernatants may be removed at various time points and measured for fluorescence at 416/514 nm (Ex/Em). In an embodiment acriflavine is used as a cargo in the free drug form (which helps illustrate the release profile for drug solutions with different PVA concentrations). […] This may be due, at least in part, to the increased viscosity of the drug when combined with PVA, which enables the drug to be trapped within or on the pores present in the foam. […]

Row | solubility [1] | release profile ([2]; drug solution with 0% PVA) | release profile ([2]; solutions with higher PVA concentrations) | drug uptake onto or into the foam ([3]; drug solution without PVA (0% PVA), compared to solutions with increasing PVA concentration) | drug uptake onto or into the foam ([3]; increasing PVA concentrations, FIGS. 1, 2, 3) | Molecule | acriflavine release from SMP foams (non-cumulative release curve) ([2]; HDI-based SMP foams, FIG. 1, increasing PVA concentration) | acriflavine release from SMP foams (non-cumulative release curve) ([2]; non-reticulated TMHDI 60 (TH60) SMP foams, FIG. 3, increasing PVA concentration) | acriflavine release from SMP foams (non-cumulative release curve) ([2]; reticulated HH80 SMP foams, FIG. 2, increasing PVA concentration)
1 | soluble in both DMSO and water |  |  |  |  | COc1cccc2c1C(=O)c1c(O)c3c(c(O)c1C2=O)C[C@@](O)(C(=O)CO)C[C@@H]3O[C@H]1C[C@H](N)[C@H](O)[C@H](C)O1 [Doxorubicin] |  |  | 
2 | soluble in both DMSO and water | delayed burst release | immediate release | less drug uptake | increased drug uptake | Acriflavine | increases (or at least differs) with increasing PVA concentration | increased (or at least differs) with increasing PVA concentration | increased (or at least differs) with increasing PVA concentration
